The numbers were not newly measured in patent publication US20200224165A1, “METHODS AND COMPOSITIONS FOR REJUVENATION” (priority 2016, published 2020), which cites them from elsewhere.

For the data set the following is noted: without irradiation and chemotherapy.

For the molecule `c1cc(CN2CCCNCCNCCCNCC2)ccc1CN1CCCNCCNCCCNCC1` [AMD3100], the “effectiveness as conditioning for HSCT” value is “not to be sufficiently effective”.
